The record followed here is patent US11400160B2, “Multifunctional conjugates” (E.P.O.S IASIS Research and Development Limited, priority 2017, dated 2022).

Where two headings read alike, the source gives them in different places.

The subject of one assay is RAW264.7 cells. The assay is described as follows: In vitro osteoclastogenesis of RAW264.7 (TRAP staining). In kind it is cell-based, murine. The conditions noted are these: RANKL-differentiated; γ-tocopherol at 1 μg/ml and 201 μg/ml; bpp(OEt) at increasing concentrations; FIG. 4. The method, then: (§1) Human peripheral blood mononuclear cells (PBMCs) and the RAW264.7 murine monocytic cell line were differentiated into osteoclast-like cells in the presence of RANKL plus M-CSF and have been used as model systems of osteoclastogenesis. Osteoclast-like cells, from Giant Cell Tumours (GCT) of bone specimens from three independent donors were used to investigate the effect of compounds of the invention on the bone resorbing activity of mature osteoclasts.
(§2) Cells were cultured in 96-well plates at a density of 1×10^4 cells/well in DMEM medium with 10% FCS, L-glutamine (2 mM) and Hepes (20 mM). Cells were allowed to attach for 4 hrs before treatment with RANKL (50 ng/ml) in the presence or absence of increasing concentrations of compounds of the invention as above. Medium and treatments were replaced on day three and TRAP activity determined on day 5. The overall number of viable cells were determined by crystal violet staining.
Osteoclast cultures established by the differentiation of RAW264.7 cells in wells were fixed and stained for tartrate resistant acid phosphatase (TRAP) as recommended by the manufacturer on days 4 and 5. TRAP positive cells were visualised by light microscopy and images taken with a digital camera.

The nature of assay [1]: Binding to pre-loaded bone slices / hydroxyapatite after washing. The conditions noted are these: pre-loaded whale dentine or osteologic slides, unbound drug washed away. The text has this: (§3) In a separate experiment, pre-loaded bone slices (whale dentine) or commercial forms of hydroxyapatite (osteologic slides) with either free γ-tocopherol (γToc) or γ-tocopherol-bpp(OEt) (BP-γToc) and then washed away unbound drug.

Another assay deals with MDA-MB231TXSA cells. The assay is described as follows: Cell viability, crystal violet colorimetric assay. It is filed as cell-based. Conditions: 72 hrs; for IC50: tested at 0.02-0.1 mM, read-out: IC50 values MB231-TXSA. The procedure: (§4) Immortalised osteolytic metastatic breast cancer cell lines, a) hormone-dependent MCF-7 and b) hormone refractory MDA-MB231, together with the daughter line MDA-MB231TXSA were incubated with 5 gradual concentrations of compounds of the invention as described below. Cell viability was assessed with the crystal violet colorimetric assay and IC50s were evaluated.
(§5) Medium was removed from cell cultures and cells were fixed with 4% v/v formaldehyde for 5 mins at room temperature. Formalin was then removed and CV added for 10 mins at room temperature followed by several washes with dsH2O. Samples were allowed to dry overnight. The following day, 10% acetic acid was added for 15 mins and optical density at 620 nm was measured. Optical densities versus compound concentrations were plotted in graphs and IC50s estimated by linear regression analysis using the WorkOut (VictorX4) software.
(§6) MCF-7, MDA-MB231 and MDA-MB231TXSA cells were seeded in 96-well-plates and allowed to attach overnight. The following day media were replaced with fresh media containing the following compounds: Both free tetraethyl methylbisphosphonate (bpp(OEt)) and bpp(OEt) in 1:1 combination with the free chromanol and the biphosphonate conjugates were tested at 5 gradual concentrations of: 0.02, 0.04, 0.06, 0.08 and 0.1 mM.
(§7) Cells were cultured in the presence of the compounds for 72 hrs and viability was assessed on day 3 by crystal violet assay. The cell lines were selected for their high bone metastatic potential. The fluorescently transfected line MB231TXSA, derived from line MB231 is also used in animal studies (WP7).

A further assay has as its system MDA-MB231 cells. The assay is described as follows: Cell viability, crystal violet colorimetric assay. In kind it is cell-based. Conditions: 72 hrs; for IC50: tested at 0.02-0.1 mM; for EC50: * denotes EC50 value, read-out: EC50 value (starred) MB231. The method, then:
as §4, §5, §6, §7

The subject of assay [2] is metastatic breast cancer cell lines (MCF-7, MDA-MB231, MDA-MB231TXSA). The assay is described as follows: Cell viability / antiproliferative activity, breast cancer lines. In kind it is cell-based. Conditions: for antiproliferative activity compared with bpp(OEt): esterified compounds and 1:1 mixtures; for effect on cell viability: viability assays and IC50s, 72 hrs. The procedure: as §4, §5, §6, §7

The next assay deals with MCF-7 cells. The assay is described as follows: Cell viability, crystal violet colorimetric assay. It is filed as cell-based. Conditions: 72 hrs; for IC50: tested at 0.02-0.1 mM, unstarred values; for EC50: * denotes EC50 value, read-out: EC50 value (starred) MCF-7. The method, then:
as §4, §5
MCF-7, MDA-MB231 and MDA-MB231TXSA cells were seeded in 96-well-plates and allowed to attach overnight. […]
as §7

Assay [3] concerns breast and prostate cancer metastatic cell lines. In words: Dose response of cell viability of breast and prostate cancer cells (FIG. 1). It is filed as cell-based.
Assay [4] concerns osteoclasts from RAW264.7 and Human PBMC. The assay is described as follows: Resorption on pre-loaded whale dentine / osteologic slides (pit formation). In kind it is cell-based, murine.
Source text: Zoledronic acid was used as control.
as §1
Human PBMCs were isolated from normal healthy donors isolated from the buffy coats acquired from the local Red Cross Blood Service. The cells were diluted in Hanks Balanced Salt Solution (HBSS) and separated by gradient centrifugation with Lymphoprep™. Isolated cells were resuspended in α MOD, 10% FCS, L-glutamine (2 mM), Hepes (20 mM), supplemented with M-CSF (25 ng/ml), 1α,25(OH)2 vitamin D3 (10 nM) and dexamethasone (10 nM) and plated into 96-well plates containing whale dentine slices, for the bone resorption assay or directly into wells for TRAP staining. The following day, media were removed and replaced with media as above, supplemented with RANKL (100 ng/ml) in the presence or absence of increasing concentrations of compounds of the invention. Medium and treatments were replaced every three days.
as §2
Whale dentine slices will be washed in extran, rinsed with distilled water, washed in 70% ethanol and dried overnight. The dentine slices mounted on stubs, carbon-coated and visualised on a Philips XL-20 scanning electron microscope, (SEM) as previously described. Images will be analysed using ImageQuant software and the area of resorption determined for each dentine slice (quadruplicate dentine slices for each treatment). Results are expected to be average resorption area +/− standard errors of the mean (SEM) and the significant differences between treatments will be determined using Students t-tests (2-tailed, unpaired).
as §3

The subject of assay [5] is metastatic breast cancer lines. In words: DAPI staining of apoptotic nuclei. In kind it is cell-based. Conditions: cells treated with IC50 concentrations. The method, then: Compounds with statistically significant decrease in viability were further examined to determine whether their effect was due to induced apoptosis based on morphologic criteria in DAPI-stained cells. […] Pro-apoptotic efficacies were compared using two-way analysis of Variance (ANOVA) followed by Bonferroni post-tests.
Growth medium was removed and cells were fixed with 4% v/v formaldehyde in PBS for 5 mins at room temperature. Fixed cells were washed once with PBS and incubated with 1 μg/ml DAPI in PBS for 20 mins at 37° C. Rinsed with PBS and mounted in mounting medium. Coverslips were sealed on glass slides and examined for the presence of apoptotic cells by fluorescence microscopy (see FIG. 2).

Assay [6] deals with Caspase-3 activity in MB231 breast cancer cell-line. The assay is described as follows: Caspase-3 enzymatic activity assay. It is filed as cell-based. Conditions: IC50 concentrations, two-way ANOVA with Bonferroni post-tests. The method, then:
Cells were grown in 12 well-plates in the presence of IC50 concentrations of compounds of the invention or culture medium with 0.1% v/v ethanol as control and were washed with PBS and incubated with lysis buffer for 15 mins at 4° C. Lysates were centrifuged at 15000 g. 20 μl of each lysate suspension was incubated with 100 μl of protease buffer containing 10 μM of fluorescent substrate zDEVD-AFC (3 samples/lysate) for 4 hrs at room temperature. Caspase-3 enzymatic activity was measured every 1 hr by fluorescence with excitation at 405 nm and emission at 515/30 nm.
Fluorescence measurements were plotted in graphs against time and were statistically analysed by two-way ANOVA followed by Bonferroni post-tests to identify statistically significant apoptotic activities of compounds of the invention (see FIG. 3).

For `CCOP(=O)(OCC)C(CCC(=O)O)P(=O)(OCC)OCC` [bpp(OEt), Tetra Ethyl 4,4-bis(phosphono)-butanoic Acid, reference compound], the “osteoclastogenesis of Raw264.7” value in the assay with RAW264.7 cells is reported as “inhibited osteoclastogenesis in a dose-dependent manner”. Further, in [1], the “binding to bone substrate / bone mineral” value is listed as “high affinity for bone”. The IC50 (as a rule, the point on the concentration scale where inhibition reaches its midpoint) in the assay with MDA-MB231TXSA cells (Exp.1) was determined as 441 µM; in the assay on MDA-MB231TXSA cells (Exp.2, unstarred values), 129 µM; in the assay with MDA-MB231TXSA cells (Exp.3), 136 µM; in the assay on MDA-MB231TXSA cells (Exp.4), 179 µM; in the assay with MDA-MB231 cells (Exp.1, unstarred values) it was 106 µM; with MDA-MB231 cells (Exp.2), 242 µM. The IC50 with MCF-7 cells (Exp.1) was 107 µM. Besides, the EC50 (in general, the midpoint of the concentration-response curve) in the assay on MDA-MB231 cells (Exp.3) worked out at 74.2 µM; in the assay on MDA-MB231 cells (Exp.4), 710 µM; with MCF-7 cells (Exp.2), 143 µM; in the assay with MCF-7 cells (Exp.3), 365 µM; in the assay with MCF-7 cells (Exp.4), 1980 µM. In assay [2], the “antiproliferative/proapoptotic effect in metastatic breast cancer cell-lines” value was “did not have antiproliferative/proapoptotic effect”. In addition, in assay [3], the “cell viability on breast and prostate cancer metastatic cell lines” value is listed as “without effect”. The “anti-resorptive activity of the free bisphosphonate” value in [4] is recorded as “minimal anti-resorptive activity”.
In the case of “α-tocopheryl Bisphosphonic Acid [α-toc-bpp(OH)]”, the IC50 worked out at 88.8 µM with MDA-MB231TXSA cells (Exp.3); 75.9 µM in the assay with MDA-MB231TXSA cells (Exp.4); 61.6 µM in the assay with MDA-MB231 cells (Exp.3, unstarred values); 238 µM with MDA-MB231 cells (Exp.4, unstarred values); 64.1 µM in the assay with MCF-7 cells (Exp.4). In addition, in assay [2], the “antiproliferative activity compared with bpp(OEt)” value is listed as “increased”. For the same compound, the “effect on cell viability” value in assay [2] is reported as “reduced cell viability”. The EC50 in the assay with MCF-7 cells (Exp.3) worked out at 351 µM.
Consider “γ-tocopheryl Diphosphonic Acid [γ-toc-bpp(OH)]”, for which the “apoptotic nuclei (condensed chromatin, fractured nuclei) by DAPI staining” value in assay [5] is recorded as “increased numbers of apoptotic nuclei”. The IC50 in the assay on MDA-MB231TXSA cells (Exp.1) amounted to 92 µM; with MDA-MB231 cells (Exp.1, unstarred values) it was 172 µM; in the assay with MDA-MB231 cells (Exp.2) it was 66.2 µM; in the assay with MCF-7 cells (Exp.2), 65.1 µM. The half-maximal effective concentration (EC50) with MDA-MB231TXSA cells (Exp.2, * denotes EC50 value, read-out: EC50 value (starred) MB231-TXSA) was 182 µM; with MCF-7 cells (Exp.1), 303 µM. Further, the “antiproliferative activity compared with bpp(OEt)” value in [2] is listed as “increased”. Moreover, the “antiproliferative activity compared with γ-tocopherol” value in assay [2] (upon esterification of γ-tocopherol) was “increased”. In addition, the “effect on cell viability” value in assay [2] is “reduced cell viability”. Further, the “pro-apoptotic activity (Caspase-3 activity)” value in assay [6] is “did not show significant pro-apoptotic activity”.
For the compound `Cc1c(C)c2c(c(C)c1O)CC[C@@](C)(CCC[C@H](C)CCC[C@H](C)CCCC(C)C)O2` [α-toc, α-tocopherol, reference compound], the half-maximal inhibitory concentration (IC50) in the assay on MDA-MB231TXSA cells (Exp.3) is 137 µM; with MDA-MB231TXSA cells (Exp.4) it was 88.7 µM; in the assay with MDA-MB231 cells (Exp.3, unstarred values), 103 µM; in the assay with MCF-7 cells (Exp.3) it was 54.7 µM; with MCF-7 cells (Exp.4), 54.5 µM. Besides, in the assay on MDA-MB231 cells (Exp.4), the concentration for a half-maximal effect (EC50) is 131 µM.
In the case of `CCOP(=O)(OCC)C(CCC(=O)Oc1c(C)c(C)c2c(c1C)CCC(C)(CCCC(C)CCCC(C)CCCC(C)C)O2)P(=O)(OCC)OCC` (stereo not drawn) [α-toc-bpp(OEt), α-Tocopheryl Bisphosphonic Ester], the concentration for half-maximal inhibition (IC50) turned out to be 98.1 µM with MDA-MB231TXSA cells (Exp.3); 73 µM in the assay on MDA-MB231TXSA cells (Exp.4); 128 µM in the assay on MDA-MB231 cells (Exp.3, unstarred values); 281 µM in the assay with MDA-MB231 cells (Exp.4, unstarred values); 76.8 µM with MCF-7 cells (Exp.4). Besides, the “antiproliferative activity compared with bpp(OEt)” value in assay [2] is on record as “increased”. Further, the “effect on cell viability” value in [2] is recorded as “reduced cell viability”. For the same compound, the EC50 in the assay with MCF-7 cells (Exp.3) worked out at 152 µM.
Take `CC(C)=CCC/C(C)=C/CC/C(C)=C/CC[C@]1(C)CCc2cc(O)c(C)c(C)c2O1` [γ-Tocotrienol]: in assay [3], the “cell viability on breast and prostate cancer metastatic cell lines” value is reported as “inhibited in a dose-dependent manner”.
